IC50 data for one compound are collected here from ChEMBL document CHEMBL2417360, “Parguerene and precarriebowmide, two classes of lipopeptides from the marine cyanobacterium Moorea producens” (J Nat Prod, 2013).

This assay is described as follows: Cytotoxicity against human H460 cells after 48 hrs by MTT assay. Format: functional, cell-based. The settings on record: NCI-H460, 48 h. (Tetrazolium assays rely on reduction of a dye to a coloured formazan, in cell work by metabolically active cells.)

What is called IC50 is the point on the concentration scale where inhibition reaches its midpoint. Read a low IC50 as higher potency.

Some results are limits rather than exact numbers.

In turn, `CCC[C@H]1NC(=O)[C@H](C)NC(=O)[C@H](CC(C)C)N(C)C(=O)[C@H](Cc2ccccc2)NC(=O)[C@H](CCSC)NC(=O)[C@@H](Cc2ccccc2)N(C)C(=O)[C@@H](C(C)C)OC(=O)[C@H]1C` [PRECARRIEBOWMIDE] had an IC50 of more than 10 µM.
